Assay results as given in PubChem BioAssay AID1918999 (Molecular Pharmacology Branch, DTP, NCI, 2023).

Tested on: 556581-035-R-J1-PDC complex spheroid growth
Experiment: Anticancer human tumor 556581-035-R-J1-PDC patient-derived ovarian carcinoma cell line growth inhibition [AhR]
Details: for IC50: curve of first compound; for viability, T/C: stronger effect = lower value
In short: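 Spheroids combined tumor cells with HUVEC endothelial cells and human MSCs as stroma. AhR antagonists were paired with standard or investigational drugs, each dosed in half-log steps down from near clinical Cmax, or from 10 microM where Cmax was unknown.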

[1] = second compound 0.1 µM, first compound 0.0316 µM
[2] = second compound 0.1 µM, first compound 0.1 µM
[3] = second compound 0.1 µM, first compound 0.316 µM
[4] = second compound 0.1 µM, first compound 1 µM
[5] = second compound 0.1 µM, first compound 3.16 µM
[6] = second compound 0.1 µM, first compound 10 µM
[7] = second compound 0.316 µM, first compound 0.0316 µM
[8] = second compound 0.316 µM, first compound 0.1 µM
[9] = second compound 0.316 µM, first compound 0.316 µM
[10] = second compound 0.316 µM, first compound 1 µM
[11] = second compound 0.316 µM, first compound 3.16 µM
[12] = second compound 0.316 µM, first compound 10 µM
[13] = second compound 1 µM, first compound 0.0316 µM
[14] = second compound 1 µM, first compound 0.1 µM
[15] = second compound 1 µM, first compound 0.316 µM
[16] = second compound 1 µM, first compound 1 µM
[17] = second compound 1 µM, first compound 3.16 µM
[18] = second compound 1 µM, first compound 10 µM
[19] = second compound 3.16 µM, first compound 0.0316 µM
[20] = second compound 3.16 µM, first compound 0.1 µM
[21] = second compound 3.16 µM, first compound 0.316 µM
[22] = second compound 3.16 µM, first compound 1 µM
[23] = second compound 3.16 µM, first compound 3.16 µM
[24] = second compound 3.16 µM, first compound 10 µM
[25] = second compound 10 µM, first compound 0.0316 µM
[26] = second compound 10 µM, first compound 0.1 µM
[27] = second compound 10 µM, first compound 0.316 µM
[28] = second compound 10 µM, first compound 1 µM
[29] = second compound 10 µM, first compound 3.16 µM
[30] = second compound 10 µM, first compound 10 µM
[31] = second compound 0.1 µM, first compound 0.00949 µM
[32] = second compound 0.1 µM, first compound 0.03 µM
[33] = second compound 0.1 µM, first compound 0.0949 µM
[34] = second compound 0.1 µM, first compound 0.3 µM
[35] = second compound 0.316 µM, first compound 0.00949 µM
[36] = second compound 0.316 µM, first compound 0.03 µM
[37] = second compound 0.316 µM, first compound 0.0949 µM
[38] = second compound 0.316 µM, first compound 0.3 µM
[39] = second compound 1 µM, first compound 0.00949 µM
[40] = second compound 1 µM, first compound 0.03 µM
[41] = second compound 1 µM, first compound 0.0949 µM
[42] = second compound 1 µM, first compound 0.3 µM
[43] = second compound 3.16 µM, first compound 0.00949 µM
[44] = second compound 3.16 µM, first compound 0.03 µM
[45] = second compound 3.16 µM, first compound 0.0949 µM
[46] = second compound 3.16 µM, first compound 0.3 µM
[47] = second compound 10 µM, first compound 0.00949 µM
[48] = second compound 10 µM, first compound 0.03 µM
[49] = second compound 10 µM, first compound 0.0949 µM
[50] = second compound 10 µM, first compound 0.3 µM
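For viability, T/C in this document: compound exposure lasted 7 days; 100% = DMSO vehicle control growth.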

CC1(C)CCC(CN2CCN(c3ccc(C(=O)NS(=O)(=O)c4ccc(NCC5CCOCC5)c([N+](=O)[O-])c4)c(Oc4cnc5[nH]ccc5c4)c3)CC2)=C(c2ccc(Cl)cc2)C1 + Cc1ccccc1N=Nc1ccc(NC(=O)c2ccnn2C)c(C)c1
IC50 (second compound 0.1 µM): > 10 µM | IC50 (second compound 0.316 µM): > 10 µM | IC50 (second compound 1 µM): > 10 µM | IC50 (second compound 3.16 µM): > 10 µM | IC50 (second compound 10 µM): > 10 µM | viability, T/C [1]: 97.1% | viability, T/C [2]: 108% | viability, T/C [3]: 106% | viability, T/C [4]: 103% | viability, T/C [5]: 106% | viability, T/C [6]: 82.4% | viability, T/C [7]: 99.3% | viability, T/C [8]: 105% | viability, T/C [9]: 113% | viability, T/C [10]: 99.6% | viability, T/C [11]: 108% | viability, T/C [12]: 85.9% | viability, T/C [13]: 102% | viability, T/C [14]: 101% | viability, T/C [15]: 109% | viability, T/C [16]: 98.3% | viability, T/C [17]: 97.5% | viability, T/C [18]: 78.1% | viability, T/C [19]: 96.7% | viability, T/C [20]: 97.1% | viability, T/C [21]: 97.7% | viability, T/C [22]: 97.9% | viability, T/C [23]: 103% | viability, T/C [24]: 90.3% | viability, T/C [25]: 101% | viability, T/C [26]: 97.5% | viability, T/C [27]: 97.6% | viability, T/C [28]: 95.6% | viability, T/C [29]: 86.7% | viability, T/C [30]: 77.2%

CC1COCCN1c1cc(C2(S(C)(=N)=O)CC2)nc(-c2ccnc3[nH]ccc23)n1 (stereo not given) + Cc1ccccc1N=Nc1ccc(NC(=O)c2ccnn2C)c(C)c1
IC50 (second compound 0.1 µM): > 10 µM | IC50 (second compound 0.316 µM): > 10 µM | IC50 (second compound 1 µM): > 10 µM | IC50 (second compound 3.16 µM): > 10 µM | IC50 (second compound 10 µM): > 10 µM | viability, T/C [1]: 100% | viability, T/C [2]: 99.5% | viability, T/C [3]: 96.6% | viability, T/C [4]: 92.1% | viability, T/C [5]: 78.4% | viability, T/C [6]: 59% | viability, T/C [7]: 98.8% | viability, T/C [8]: 99.2% | viability, T/C [9]: 96.7% | viability, T/C [10]: 92% | viability, T/C [11]: 80.1% | viability, T/C [12]: 58.3% | viability, T/C [13]: 100% | viability, T/C [14]: 100% | viability, T/C [15]: 98.6% | viability, T/C [16]: 93.9% | viability, T/C [17]: 78.4% | viability, T/C [18]: 60% | viability, T/C [19]: 95.1% | viability, T/C [20]: 98.1% | viability, T/C [21]: 95.4% | viability, T/C [22]: 88% | viability, T/C [23]: 73.9% | viability, T/C [24]: 58.8% | viability, T/C [25]: 96.1% | viability, T/C [26]: 97.2% | viability, T/C [27]: 93% | viability, T/C [28]: 85.2% | viability, T/C [29]: 74.5% | viability, T/C [30]: 60.8%

CCN(c1cc(-c2ccc(CN3CCOCC3)cc2)cc(C(=O)NCc2c(C)cc(C)[nH]c2=O)c1C)C1CCOCC1 + Cc1ccccc1N=Nc1ccc(NC(=O)c2ccnn2C)c(C)c1
IC50 (second compound 0.1 µM): > 3 µM | IC50 (second compound 0.316 µM): > 3 µM | IC50 (second compound 1 µM): > 3 µM | IC50 (second compound 3.16 µM): > 3 µM | IC50 (second compound 10 µM): > 3 µM | viability, T/C [31]: 92% | viability, T/C [32]: 97% | viability, T/C [33]: 85.8% | viability, T/C [34]: 91.5% | viability, T/C (second compound 0.1 µM, first compound 0.949 µM): 90.9% | viability, T/C (second compound 0.1 µM, first compound 3 µM): 86.8% | viability, T/C [35]: 95.2% | viability, T/C [36]: 98.2% | viability, T/C [37]: 88.9% | viability, T/C [38]: 85.4% | viability, T/C (second compound 0.316 µM, first compound 0.949 µM): 86.2% | viability, T/C (second compound 0.316 µM, first compound 3 µM): 81.1% | viability, T/C [39]: 81.4% | viability, T/C [40]: 85.6% | viability, T/C [41]: 88.4% | viability, T/C [42]: 82.6% | viability, T/C (second compound 1 µM, first compound 0.949 µM): 82.4% | viability, T/C (second compound 1 µM, first compound 3 µM): 89.1% | viability, T/C [43]: 84.5% | viability, T/C [44]: 88.1% | viability, T/C [45]: 87.6% | viability, T/C [46]: 73.9% | viability, T/C (second compound 3.16 µM, first compound 0.949 µM): 91.8% | viability, T/C (second compound 3.16 µM, first compound 3 µM): 78% | viability, T/C [47]: 74.9% | viability, T/C [48]: 90.3% | viability, T/C [49]: 83.8% | viability, T/C [50]: 79% | viability, T/C (second compound 10 µM, first compound 0.949 µM): 77% | viability, T/C (second compound 10 µM, first compound 3 µM): 73.4%

Nc1ncn(C2CC(O)C(CO)S2)c(=O)n1 (stereo not given) + Cc1ccccc1N=Nc1ccc(NC(=O)c2ccnn2C)c(C)c1
IC50 (second compound 0.1 µM): > 0.3 µM | IC50 (second compound 0.316 µM): > 0.3 µM | IC50 (second compound 1 µM): > 0.3 µM | IC50 (second compound 3.16 µM): > 0.3 µM | IC50 (second compound 10 µM): > 0.3 µM | viability, T/C (second compound 0.1 µM, first compound 0.000949 µM): 105% | viability, T/C (second compound 0.1 µM, first compound 0.003 µM): 106% | viability, T/C [31]: 115% | viability, T/C [32]: 97% | viability, T/C [33]: 77.8% | viability, T/C [34]: 69.5% | viability, T/C (second compound 0.316 µM, first compound 0.000949 µM): 93.6% | viability, T/C (second compound 0.316 µM, first compound 0.003 µM): 111% | viability, T/C [35]: 100% | viability, T/C [36]: 95.9% | viability, T/C [37]: 78.8% | viability, T/C [38]: 63.4% | viability, T/C (second compound 1 µM, first compound 0.000949 µM): 99.5% | viability, T/C (second compound 1 µM, first compound 0.003 µM): 106% | viability, T/C [39]: 99.9% | viability, T/C [40]: 91.5% | viability, T/C [41]: 102% | viability, T/C [42]: 64.5% | viability, T/C (second compound 3.16 µM, first compound 0.000949 µM): 87.1% | viability, T/C (second compound 3.16 µM, first compound 0.003 µM): 101% | viability, T/C [43]: 88.1% | viability, T/C [44]: 90.6% | viability, T/C [45]: 76.8% | viability, T/C [46]: 65.7% | viability, T/C (second compound 10 µM, first compound 0.000949 µM): 90% | viability, T/C (second compound 10 µM, first compound 0.003 µM): 95.2% | viability, T/C [47]: 84.1% | viability, T/C [48]: 80.1% | viability, T/C [49]: 83.1% | viability, T/C [50]: 68%
